Data reported in patent US20250092014A1, “COMPOUNDS AND METHODS OF ACTIVATING LIPOPROTEIN LIPASE” (Metrea Biosciences, Inc., priority 2021, published 2025).
pEC50: −log10 of the molar value. Structures can show the parent of a compound that is named as a salt.

Each molecule was assayed against T1, LPL:sGPIHBP1 complex (Homo sapiens, UniProt P06858) (assay: RB assay (LPL:sGPIHBP1 pre-incubated with ANGPTL4, RB substrate)). Settings: read-out: RB qAC50.
T1 sequence (P06858 28-475): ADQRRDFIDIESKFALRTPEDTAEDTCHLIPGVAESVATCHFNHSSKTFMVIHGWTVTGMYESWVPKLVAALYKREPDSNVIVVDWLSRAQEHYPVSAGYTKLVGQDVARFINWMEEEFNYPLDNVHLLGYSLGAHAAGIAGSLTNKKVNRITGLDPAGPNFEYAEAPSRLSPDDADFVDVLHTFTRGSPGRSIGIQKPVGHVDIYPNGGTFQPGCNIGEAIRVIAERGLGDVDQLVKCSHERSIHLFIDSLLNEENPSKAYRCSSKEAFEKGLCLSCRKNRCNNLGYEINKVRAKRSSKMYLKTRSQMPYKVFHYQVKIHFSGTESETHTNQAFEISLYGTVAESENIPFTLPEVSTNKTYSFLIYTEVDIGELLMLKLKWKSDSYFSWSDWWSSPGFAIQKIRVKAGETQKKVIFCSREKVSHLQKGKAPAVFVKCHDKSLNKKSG
T1 sequence (Q8IV16 21-151 partner limits assumed): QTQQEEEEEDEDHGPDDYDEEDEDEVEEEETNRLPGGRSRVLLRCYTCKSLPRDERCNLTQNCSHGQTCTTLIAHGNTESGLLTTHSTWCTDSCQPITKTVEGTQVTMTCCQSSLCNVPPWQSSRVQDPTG
Assay type: biochemical
Experimental: The assay was performed in black 1536-well plates using purified proteins. To identify compounds that stimulate LPL activity either by directly activating LPL or by inhibiting the antagonist ANGPTL4, the LPL:sGPIHBP1 complex was pre-incubated with ANGPTL4 to decrease LPL activity by 80%. After a 60 min pre-incubation, the reaction was started by adding the RB substrate. 30 min after RB addition, the enzymatic reaction was stopped using SDS. Fluorescence intensity was measured 2 h after stopping the reaction.
20 or 40 nl of compound solution in 100% DMSO were placed in test plate. Then was added LPL:sGPIHBP1 to all wells (diluted in assay buffer to 5 nM; 2 μl/well). This was followed by an addition of ANGPTL4 to compounds and neutral controls (diluted in assay buffer to 20 nM; 1 μl/well). A buffer solution was added to the stimulator control (1 μl/well). The plates were then centrifuged and pre-incubated for 60 min at RT. The reaction was started by adding substrate to all wells (diluted in assay buffer to 40 μM, 1 μl/well). The plated were centrifuged (800 rpm for 1 min) and incubated 30 min at RT (=reaction time). The reaction was stopped by adding SDS to all wells (diluted in water to 2.5%, 2 μl/well); incubated 2 h at RT. The fluorescence intensity (ex 540 nm/em 590 nm) was measured on a Pherastar (BMG) using 5 flashes.

| SMILES | pEC50 |
| --- | --- |
| Cc1cccc2c(C(=O)Nc3cc(C(=O)Nc4ccc(F)cc4CC(=O)O)ccc3N3CCCCC3)nn(CC(F)(F)F)c12 [Compound 144, 2-(5-fluoro-2-(3-(7-methyl-1-(2,2,2-trifluoroethyl)-1H-indazole-3-carboxamido)-4-(piperidin-1-yl)benzamido)phenyl)acetic acid] | 5.24 |
| O=C(O)Cc1cc(F)ccc1NC(=O)c1ccc(N2CCCCC2)c(NC(=O)c2nn(CC(F)(F)F)c3cccnc23)c1 [Compound 111, 2-(5-fluoro-2-(4-(piperidin-1-yl)-3-(1-(2,2,2-trifluoroethyl)-1H-pyrazolo[4,3-b]pyridine-3-carboxamido)benzamido)phenyl)acetic acid] | 4.64 |
| O=C(O)Cc1cc(F)ccc1NC(=O)c1ccc(N2CCCCC2)c(NC(=O)c2nn(C[C@@H]3CCCO3)c3ccccc23)c1 [Compound 136, (S)-2-(5-fluoro-2-(4-(piperidin-1-yl)-3-(1-((tetrahydrofuran-2-yl)methyl)-1H-indazole-3-carboxamido)benzamido)phenyl)acetic acid] | < 4.60 |
| O=C(O)Cc1cc(F)ccc1NC(=O)c1cc(NC(=O)c2nn(CC(F)(F)F)c3ccccc23)c(N2CCCCC2)cn1 [Compound 43, 2-(5-fluoro-2-(5-(piperidin-1-yl)-4-(1-(2,2,2-trifluoroethyl)-1H-indazole-3-carboxamido)picolinamido)phenyl)acetic acid] | < 5.15 |
| O=C(O)Cc1cc(F)ccc1NC(=O)c1ccc(N2CCCCC2)c(NC(=O)c2nn(CC3CCOC3)c3ccccc23)c1 (stereo not shown) [Compound 118, 2-(5-fluoro-2-(4-(piperidin-1-yl)-3-(1-((tetrahydrofuran-3-yl)methyl)-1H-indazole-3-carboxamido)benzamido)phenyl)acetic acid] | < 5.15 |
| CC(n1nc(C(=O)Nc2cc(C(=O)Nc3ccc(F)cc3CC(=O)O)ccc2N2CCCCC2)c2ccccc21)C(F)(F)F (stereo not shown) [Compound 146, 2-(5-fluoro-2-(4-(piperidin-1-yl)-3-(1-(1,1,1-trifluoropropan-2-yl)-1H-indazole-3-carboxamido)benzamido)phenyl)acetic acid] | < 5.15 |
| O=C(O)Cc1cc(F)ccc1NC(=O)c1ccc(N2CCCCC2)c(NC(=O)c2cn3ccccc3n2)c1 [Compound 109, 2-(5-fluoro-2-(3-(imidazo[1,2-a]pyridine-2-carboxamido)-4-(piperidin-1-yl)benzamido)phenyl)acetic acid] | < 4.60 |
| O=C(O)Cc1cc(F)ccc1NC(=O)c1ccc(N2CCC3(CC3)C2)c(NC(=O)c2nn(CC(F)(F)F)c3ccccc23)c1 [Example 53] | 5.17 |
| N#CC1(Cn2nc(C(=O)Nc3cc(C(=O)Nc4ccc(F)cc4CC(=O)O)ccc3N3CCCCC3)c3ccccc32)CC1 [Compound 127, 2-(2-(3-(1-((1-cyanocyclopropyl)methyl)-1H-indazole-3-carboxamido)-4-(piperidin-1-yl)benzamido)-5-fluorophenyl)acetic acid] | 5.37 |
| O=C(O)Cc1cc(F)ccc1NC(=O)c1ccc(N2CCCCC2)c(NC(=O)c2nn(C[C@H]3CCCO3)c3ccccc23)c1 [Compound 137, (R)-2-(5-fluoro-2-(4-(piperidin-1-yl)-3-(1-((tetrahydrofuran-2-yl)methyl)-1H-indazole-3-carboxamido)benzamido)phenyl)acetic acid] | 5.42 |
| O=C(O)Cc1cc(F)ccc1NC(=O)c1ccc(N2CCOC2=O)c(NC(=O)c2nn(CC(F)(F)F)c3ccccc23)c1 [Example 60] | < 4.60 |
| O=C(O)Cc1cc(F)ccc1NC(=O)c1ccc(N2CCCCC2)c(NC(=O)c2nn(CC(F)(F)F)cc2C2CC2)c1 [Compound 117, 2-(2-(3-(4-cyclopropyl-1-(2,2,2-trifluoroethyl)-1H-pyrazole-3-carboxamido)-4-(piperidin-1-yl)benzamido)-5-fluorophenyl)acetic acid] | < 4.60 |
| Cc1ccc2c(c1)c(C(=O)Nc1cc(C(=O)Nc3ccc(F)cc3CC(=O)O)ccc1N1CCCCC1)nn2CC(F)(F)F [Compound 142, 2-(5-fluoro-2-(3-(5-methyl-1-(2,2,2-trifluoroethyl)-1H-indazole-3-carboxamido)-4-(piperidin-1-yl)benzamido)phenyl)acetic acid] | < 5.15 |
| O=C(O)Cc1cc(F)ccc1NC(=O)c1ccc(N2CCCCC2)c(NC(=O)c2nn(CC(F)(F)F)c3ccc(F)cc23)c1 [Compound 138, 2-(5-fluoro-2-(3-(5-fluoro-1-(2,2,2-trifluoroethyl)-1H-indazole-3-carboxamido)-4-(piperidin-1-yl)benzamido)phenyl)acetic acid] | 5.32 |
| O=C(O)Cc1cc(F)ccc1NC(=O)c1ccc(N2CCCCC2)c(NC(=O)c2c3ccccc3nn2CC(F)(F)F)c1 [Compound 135, 2-(5-fluoro-2-(4-(piperidin-1-yl)-3-(2-(2,2,2-trifluoroethyl)-2H-indazole-3-carboxamido)benzamido)phenyl)acetic acid hydrochloride] | 4.92 |
| Cc1c(C(=O)Nc2ccc(F)cc2CC(=O)O)ccc(N2CCCCC2)c1NC(=O)c1nn(CC(F)(F)F)c2ccccc12 [Compound 42, 2-(5-fluoro-2-(2-methyl-4-(piperidin-1-yl)-3-(1-(2,2,2-trifluoroethyl)-1H-indazole-3-carboxamido)benzamido)phenyl)acetic acid] | < 4.60 |
| O=C(O)Cc1cc(F)ccc1NC(=O)c1ccc(N2CCCCC2)c(NC(=O)c2nn(CC(F)(F)F)c3cnccc23)c1 [Compound 112, 2-(5-fluoro-2-(4-(piperidin-1-yl)-3-(1-(2,2,2-trifluoroethyl)-1H-pyrazolo[3,4-c]pyridine-3-carboxamido)benzamido)phenyl)acetic acid] | 5.19 |
| O=C(O)Cc1cc(F)ccc1NC(=O)c1ccc(N2CC3(CCC3)C2)c(NC(=O)c2nn(CC(F)(F)F)c3ccccc23)c1 [Example 49] | 4.70 |
| O=C(O)Cc1cc(F)ccc1NC(=O)c1ccc(N2CCC(F)(F)CC2)c(NC(=O)c2nn(CC(F)(F)F)c3ccccc23)c1 [Example 40] | 5.46 |
| CC#CCn1nc(C(=O)Nc2cc(C(=O)Nc3ccc(F)cc3CC(=O)O)ccc2N2CCCCC2)c2ccccc21 [Compound 123, 2-(2-(3-(1-(but-2-yn-1-yl)-1H-indazole-3-carboxamido)-4-(piperidin-1-yl)benzamido)-5-fluorophenyl)acetic acid] | 5.51 |
| O=C(O)Cc1cc(F)ccc1NC(=O)c1ccc(N2CCCCC2)c(NC(=O)c2nn(CC3CCCO3)c3ccccc23)c1 (stereo not shown) [Compound 119, 2-(5-fluoro-2-(4-(piperidin-1-yl)-3-(1-((tetrahydrofuran-2-yl)methyl)-1H-indazole-3-carboxamido)benzamido)phenyl)acetic acid] | 5.18 |
| O=C(O)Cc1cc(F)ccc1NC(=O)c1ccc(N2CCCCC2)c(NC(=O)c2nn(CC3CC3)c3ccccc23)c1 [Compound 94, 2-(2-(3-(1-(cyclopropylmethyl)-1H-indazole-3-carboxamido)-4-(piperidin-1-yl)benzamido)-5-fluorophenyl)acetic acid] | 5.23 |
| O=C(O)Cc1cc(F)ccc1NC(=O)c1ccc(N2CCC2)c(NC(=O)c2nn(CC(F)(F)F)c3ccccc23)c1 [Compound 39, 2-(2-(4-(azetidin-1-yl)-3-(1-(2,2,2-trifluoroethyl)-1H-indazole-3-carboxamido)benzamido)-5-fluorophenyl)acetic acid] | < 4.60 |
| O=C(O)Cc1cc(C(F)(F)F)ccc1NC(=O)c1ccc(N2CCCCC2)c(NC(=O)c2nn(CC(F)(F)F)c3ccccc23)c1 [Example 22] | 5.37 |
| O=C(O)Cc1cc(F)ccc1NC(=O)c1ccc(N2CCCCC2)c(C(=O)Nc2nn(CC(F)(F)F)c3ccccc23)c1 [Compound 41, 2-(5-fluoro-2-(4-(piperidin-1-yl)-3-((1-(2,2,2-trifluoroethyl)-1H-indazol-3-yl)carbamoyl)benzamido)phenyl)acetic acid] | 5.32 |
| O=C(O)Cc1cc(F)ccc1NC(=O)c1ccc(N2CC3CC3C2)c(NC(=O)c2nn(CC(F)(F)F)c3ccccc23)c1 (stereo not shown) [Example 52] | 5.30 |
| Cc1c(C(=O)Nc2cc(C(=O)Nc3ccc(F)cc3CC(=O)O)ccc2N2CCCCC2)c2ccccc2n1CC(F)(F)F [Compound 130, 2-(5-fluoro-2-(3-(2-methyl-1-(2,2,2-trifluoroethyl)-1H-indole-3-carboxamido)-4-(piperidin-1-yl)benzamido)phenyl)acetic acid] | < 4.60 |
| CC1CCCC(C)N1c1ccc(C(=O)Nc2ccc(F)cc2CC(=O)O)cc1NC(=O)c1nn(CC(F)(F)F)c2ccccc12 (stereo not shown) [Example 68] | < 5.15 |
